Experimental findings from US8030320B2, “Derivatives of 1-OXO-1,2-dihydroisoquinoline-5-carboxamides and of 4-OXO-3,4-dihydroquinazoline-8-carboxamides, preparation thereof and application thereof in therapeutics” (Sanofi-Aventis, priority 2007, dated 2011) are described below.

What is called melting point is the temperature, or range, at which the solid turns liquid.

Structures can show the parent of a compound that is named as a salt.

Data set [1] concerns the target T1, purified recombinant form of human BACE1 aspartyl protease (Homo sapiens, UniProt P56817).
T1 construct: hexahistidine (His6) (C); made in house; host or cells: Drosophila cells
As to the kind of experiment: BACE-1 FRET assay, in vitro inhibition of β-secretase activity. Format: biochemical. The following applies: peptide substrate 0.25 μM, enzyme 10 nM, sodium acetate buffer pH 4.5, 60 min, ambient temperature; read-out: IC50 (concentration of product giving 50% inhibition of the enzyme activity). The procedure: The tests consisted in measuring the in vitro inhibition of the β-secretase activity by the compounds of the invention, via the use of the “BACE-1 FRET Assay Kit, Red” available from PanVera-Invitrogen Inc. The β-secretase activity measured corresponds to that of a purified recombinant form of human BACE1 aspartyl protease (the latter comprising a hexahistidine tag at the C-terminal position) produced by expression in Drosophila cells. The purified enzyme is conditioned in TRIS buffer (18 mM) at pH 7.5 containing NaCl (0.45M), MnCl2 (0.9 mM), CaCl2 (0.9 mM), α-D-methylmannoside and 10% glycerol, and stored at −80° C. until use. The BACE1 activity is measured from the cleavage of a fluorogenic peptide substrate sold by Invitrogen (PanVera BACE1/β-secretase FRET assay kit, Red; reference P2985), based on the principle of fluorescence resonance energy transfer (FRET) and corresponding to the Rh-EVNLDAEFK-Quencher sequence; the cleavage of the peptide is measured from the increase of the fluorescent signal emitted by the rhodamine derivative (Rh). The test is carried out in a 96-well microplate in order to determine the inhibition of the enzyme activity by the products of the invention. […] When the incubation is finished, the fluorescence is measured in a spectrofluorimeter, at the excitation wavelength of about 543 nm and emission wavelength of about 585 nm. […]

T1 sequence (P56817 46-501): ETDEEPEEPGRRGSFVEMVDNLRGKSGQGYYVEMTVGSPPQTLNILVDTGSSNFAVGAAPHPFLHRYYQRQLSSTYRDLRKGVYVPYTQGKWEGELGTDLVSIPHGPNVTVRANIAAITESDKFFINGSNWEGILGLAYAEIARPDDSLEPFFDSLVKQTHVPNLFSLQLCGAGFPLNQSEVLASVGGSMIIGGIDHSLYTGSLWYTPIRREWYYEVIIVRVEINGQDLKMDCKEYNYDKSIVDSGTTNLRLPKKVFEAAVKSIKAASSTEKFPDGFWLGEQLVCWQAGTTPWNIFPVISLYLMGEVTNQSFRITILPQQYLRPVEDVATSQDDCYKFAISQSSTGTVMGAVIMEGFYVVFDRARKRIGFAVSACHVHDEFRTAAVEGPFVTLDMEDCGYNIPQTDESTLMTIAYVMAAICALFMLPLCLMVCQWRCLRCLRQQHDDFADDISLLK

Turning to `CCCC(CCC)n1cnc2c(C(=O)N[C@@H](Cc3ccccc3)[C@H](O)CNCc3cccc(C(F)(F)F)c3)cccc2c1=O.Cl` [Compound 3, N-[(1S,2R)-1-benzyl-2-hydroxy-3-{[3-(trifluoromethyl)benzyl]-amino}propyl]-4-oxo-3-(1-propylbutyl)-3,4-dihydroquinazoline-8-carboxamide hydrochloride (1:1)], the melting point is 152 °C. Besides, the IC50 in data set [1] was found to be 0.83 µM.

Regarding `CCCC(CCC)n1ccc2c(C(=O)N[C@@H](Cc3ccccc3)[C@H](O)CNCc3cccc(C(F)(F)F)c3)cccc2c1=O` [Compound 1, N-[(1S,2R)-1-benzyl-2-hydroxy-3-{[3-(trifluoromethyl)benzyl]-amino}propyl]-1-oxo-2-(1-propylbutyl)-1,2-dihydroisoquinoline-5-carboxamide hydrochloride (1:1)], the IC50 in data set [1] was determined as 2.6 µM.
